Measurements taken from patent US7981838B2, “Defoliant” (Bayer CropScience AG, priority 2007, dated 2011).

Test system: Cotton plants of the cultivar "Linda"
Assay: Leaf drop (defoliation) test on cotton plants in climatized chamber, spray application
Format: in vivo
Conditions: 300 l/ha water
Protocol: A water application rate of 300 l/ha was initially charged. The components herbicide and adjuvant were then added with stirring at the application rates and in the manner stated in table 1, such that a homogeneous spray liquor was formed. Here, the active ingredients were employed as suspension concentrates. The adjuvant used was Agrotin® (Bayer CropScience).
Cotton seeds of the cultivar “Linda” were sown at a depth of 1 cm and cultivated in a climatized chamber (16 h of light, temperature during the day: 26° C., at night: 20° C.) until they had reached the 8-10 leaf stage.
The plants were treated on a laboratory spray track with spray liquors of thidiazuron and thidiazuron with combination partners. The water application rate for the spray application was 300 l/ha. After the treatment, the plants were returned to the climatized chamber.
1, 2 and 4 weeks after the application, the leaf drop effect was evaluated according to a scale from 0 to 100%: • 0%=no noticeable effect compared to untreated plants • 100%=all leaves have dropped. 2.2 Results for the Combinations of (A) TDZ with (B) Cyprosulfamide

[1] = Table 2, dose 200 g of a.i./ha, 0.2% by weight of Agrotin added
[2] = Table 2, dose 25 g of a.i./ha, 0.2% by weight of Agrotin added

| Compound | Leaf drop [%] 2 weeks after application (Table 1, dose 100 g of a.i./ha, 1 l of Agrotin added, scale 0-100%) | Leaf drop [%] 2 weeks after application (Table 1, dose 200 g of a.i./ha, 1 l of Agrotin added, scale 0-100%) | Leaf drop [%] 1 week after application [1] | Leaf drop [%] 2 weeks after application [1] | Leaf drop [%] 4 weeks after application [1] | Leaf drop [%] 2 weeks after application (Table 1, dose 35 g of a.i./ha, 1 l of Agrotin added, scale 0-100%) | Leaf drop [%] 1 week after application [2] | Leaf drop [%] 2 weeks after application [2] | Leaf drop [%] 4 weeks after application [2] |
| --- | --- | --- | --- | --- | --- | --- | --- | --- | --- |
| COc1ccccc1C(=O)NS(=O)(=O)c1ccc(C(=O)NC2CC2)cc1 [Cyprosulfamide, 4-cyclopropylaminocarbonyl-N-(2-methoxybenzoyl)benzenesulfonamide] | 7% | 0% | 0% | 0% | 0% |  |  |  |  |
| O=C(Nc1ccccc1)Nc1cnns1 [TDZ, thidiazuron] |  |  |  |  |  | 67% | 37% | 56% | 63% |
